Source: patent US10702531B2, “Pyrazolopyrimidine compound as PI3K inhibitor and use thereof” (Shenzhen Bo Li Jian Medicine Co., Ltd., priority 2016, dated 2020)

Tests used:
[1] = tested on: lymphoma cell SU-DHL-6; experiment: CellTiter-Glo inhibition of proliferation of lymphoma cell SU-DHL-6; type: cell-based; conditions: Homo sapiens, 72 hours
Description: CellTiter-Glo testing method was used to test the inhibition of the proliferation of lymphoma cell SU-DHL-6 (ATCC, Catalog number: CRL-2959) by the compounds. The cell culture solution used in the test was RPMI1640 (Invitrogen, Catalog number: 11875-093). 10% fetal calf serum (Invitrogen, Catalog number: 10099-141) was used in the test.
100 μL of culture solution containing 15000 cells was distributed to wells of a 96-well plate (Corning #3903). The plate was placed in a carbon dioxide incubator overnight. 0.5 μL of the compound (which was prepared using DMSO to have eight continuous concentration gradients) to be tested was added to each of the wells the next day. Each concentration was set with two replicates, and a well without cell (blank control) and a DMSO-well (solvent control). After dosing, the cells were cultured at 37° C. in 5% CO2 atmosphere for 72 hours. At last, 100 μL of CellTiter-Glo agent (Promega, Catalog number: G7571) was added to each of the wells. Luminescence signal was detected using Flex Station3 (Molecular Devices), and the IC50 value of each of the compounds inhibiting cell proliferation was calculated using XLfit software (Table 1).

[2] = target: T1, PI3Kδ kinase (p110δ/p85α) (Homo sapiens, UniProt O00329); experiment: Activity of PI3Kδ kinase by ADP-Glo method; type: biochemical; conditions: 17 nM kinase, 50 μM PIP2, 25 μM ATP
T1 construct: purchased Millipore 14-604-K
T1 sequence (O00329 whole entry): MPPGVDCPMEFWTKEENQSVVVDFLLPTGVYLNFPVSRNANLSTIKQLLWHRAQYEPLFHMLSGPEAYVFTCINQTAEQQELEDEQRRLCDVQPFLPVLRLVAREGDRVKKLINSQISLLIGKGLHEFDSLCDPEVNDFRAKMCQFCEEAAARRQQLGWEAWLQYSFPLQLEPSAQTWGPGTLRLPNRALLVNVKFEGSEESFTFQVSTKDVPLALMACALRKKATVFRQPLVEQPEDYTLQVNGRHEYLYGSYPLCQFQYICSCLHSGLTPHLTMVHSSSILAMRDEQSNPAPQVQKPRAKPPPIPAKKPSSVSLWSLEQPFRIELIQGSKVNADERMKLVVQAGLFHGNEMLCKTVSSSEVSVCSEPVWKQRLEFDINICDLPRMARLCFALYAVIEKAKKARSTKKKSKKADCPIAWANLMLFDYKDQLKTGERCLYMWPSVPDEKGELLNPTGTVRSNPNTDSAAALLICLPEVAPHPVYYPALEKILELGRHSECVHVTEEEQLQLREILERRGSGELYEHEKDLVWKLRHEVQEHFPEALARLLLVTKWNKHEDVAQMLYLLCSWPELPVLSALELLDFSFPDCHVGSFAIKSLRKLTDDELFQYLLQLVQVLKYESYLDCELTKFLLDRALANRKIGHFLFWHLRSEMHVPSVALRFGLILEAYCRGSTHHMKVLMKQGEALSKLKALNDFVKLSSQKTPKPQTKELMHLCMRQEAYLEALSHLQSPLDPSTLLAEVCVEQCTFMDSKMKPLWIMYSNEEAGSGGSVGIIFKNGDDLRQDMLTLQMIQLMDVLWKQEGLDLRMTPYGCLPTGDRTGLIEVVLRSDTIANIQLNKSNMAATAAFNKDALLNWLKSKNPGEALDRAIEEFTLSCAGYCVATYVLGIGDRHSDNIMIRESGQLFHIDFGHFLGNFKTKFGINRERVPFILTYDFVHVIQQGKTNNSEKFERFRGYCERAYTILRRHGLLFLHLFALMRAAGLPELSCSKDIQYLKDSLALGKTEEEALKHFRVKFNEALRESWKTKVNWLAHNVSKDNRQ
T1 sequence (P27986 whole entry partner): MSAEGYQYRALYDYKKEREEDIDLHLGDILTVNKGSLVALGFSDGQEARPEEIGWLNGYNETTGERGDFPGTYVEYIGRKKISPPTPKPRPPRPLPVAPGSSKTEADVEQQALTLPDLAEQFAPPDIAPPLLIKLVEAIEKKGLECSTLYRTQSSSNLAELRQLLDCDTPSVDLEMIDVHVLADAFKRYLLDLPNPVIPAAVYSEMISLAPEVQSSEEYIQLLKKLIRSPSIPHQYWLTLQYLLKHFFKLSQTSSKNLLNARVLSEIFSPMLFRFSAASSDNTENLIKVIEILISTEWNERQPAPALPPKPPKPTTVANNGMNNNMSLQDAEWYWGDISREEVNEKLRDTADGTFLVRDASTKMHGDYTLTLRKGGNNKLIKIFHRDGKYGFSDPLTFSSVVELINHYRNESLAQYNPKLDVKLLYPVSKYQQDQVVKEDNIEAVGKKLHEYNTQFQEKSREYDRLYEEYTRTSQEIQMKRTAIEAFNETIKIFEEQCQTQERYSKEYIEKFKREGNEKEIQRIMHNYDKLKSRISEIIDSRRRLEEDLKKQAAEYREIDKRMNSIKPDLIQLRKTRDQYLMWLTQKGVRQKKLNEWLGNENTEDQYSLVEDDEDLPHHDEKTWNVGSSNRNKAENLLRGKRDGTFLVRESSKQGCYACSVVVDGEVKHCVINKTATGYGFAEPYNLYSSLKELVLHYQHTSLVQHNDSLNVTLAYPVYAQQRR
Description: Activity of PI3Kδ kinase was tested by ADP-Glo method. ADP-Glo was obtained from Promega (#V9101). p110δ/p85α was obtained from Millipore (#14-604-K). The IC50 of each of the compounds was evaluated by testing the compound at 10 concentrations. The starting concentration was 1 μM, and then a 3-fold serial dilution was performed. Buffer solutions for the testing were 50 mM HEPES pH 7.5, 3 mM MgCl2, 1 mM EGTA, 100 mM NaCl, 0.03% CHAPS, and 2 mM DTT. The final concentration of the PI3Kδ kinase was 17 nM; the final concentration of PIP2 was 50 μM; and the final concentration of ATP was 25 μM.
1. Preparation of 10 μL of kinase reaction solution: 2.5 μL of test compound solution, 2.5 μL of kinase solution, and 5 μL of substrate solution were added to each well of a 384-well plate (Corning #4512).
2. The 384-well plate was covered and incubated at room temperature for 60 minutes.
3. 5 μL of reaction solution was transferred from each well to the wells of a new 384-well plate.
4. 5 μL of ADP-Glo reagent was added to the wells of the 384-well plate to terminate the reaction.
5. The 384-well plate was shaken gently on a shaking machine. 6. 10 μL of kinase detection reagent was added to each of the wells, followed by shaking for 1 minute and allowing to standing at room temperature for 30 minutes.
8. The luminescence values of the sample were read using Synegy. 9. Data were processed using Excel and was curve-fitted using XLFit software to obtain the IC50 value of each of the compounds (Table 1).

SMILES: C[C@H](Nc1ncnc(N)c1C#N)c1cn2ncc(Cl)c2nc1-c1ccccc1 [Example 1, (S)-4-amino-6-(1-(3-chloro-5-phenylpyrazolo[1,5-a]pyrimidin-6-yl)ethylamino) pyrimidin-5-carbonitrile]
- IC50 [1]: 20 to 100 nM
- IC50 [2]: < 20 nM

SMILES: C[C@H](Nc1nc(N)nc(N)c1C#N)c1cn2ncc(Cl)c2nc1-c1ccccc1 [Example 2, (S)-2,4-diamino-6-(1-(3-chloro-5-phenylpyrazolo[1,5-a]pyrimidin-6-yl)ethylamino)pyrimidin-5-carbonitrile]
- IC50 [1]: < 20 nM
- IC50 [2]: < 20 nM

SMILES: C[C@H](Nc1nc(N)nc(N)c1C#N)c1cn2ncc(Cl)c2nc1-c1cccc(F)c1 [Example 3, (S)-2,4-diamino-6-(1-(3-chloro-5-(3-fluorophenyl)pyrazolo[1,5-a]pyrimidin-6-yl)ethylamino)pyrimidin-5-carbonitrile]
- IC50 [1]: < 20 nM
- IC50 [2]: < 20 nM

SMILES: C[C@H](Nc1ncnc(N)c1C#N)c1cn2ncc(Cl)c2nc1-c1cccc(F)c1 [Example 4, (S)-4-amino-6-(1-(3-chloro-5-(3-fluorophenyl)pyrazolo[1,5-a]pyrimidin-6-yl)ethylamino)pyrimidin-5-carbonitrile]
- IC50 [1]: 20 to 100 nM
- IC50 [2]: < 20 nM

SMILES: Cc1nc(N)nc(N[C@@H](C)c2cn3ncc(Cl)c3nc2-c2ccccc2)c1C#N [Example 5, (S)-2-amino-4-((1-(3-chloro-5-phenylpyrazolo[1,5-a]pyrimidin-6-yl)ethyl)amino)-6-methylpyrimidin-5-carbonitrile]
- IC50 [1]: 20 to 100 nM
- IC50 [2]: < 20 nM
